Measurements taken from US20240285808A1, “MOLECULAR PROBES FOR IN VIVO DETECTION OF ALDEHYDES” (The General Hospital Corporation, priority 2021, published 2024).
Several values for one entry are separate records, joined by “and”; a condition that tells them apart may be missing. Identical values can stand only once. Entries after “also recorded” stand apart in the source; their conditions may differ.

Tests used:
[1] = Reaction rates with butyraldehyde measured by HPLC-ICP-MS (Method B); assay type: physicochemical; settings: Method b: butyraldehyde 100 μM, probe 25 μM, pH 7.40
Method: Method B: Reaction Rates of Compounds with Butyraldehyde Measured by HPLC-ICP-MS
The reactions were conducted in pH 7.40 phosphate-buffered with butyraldehyde concentration of 100 μM and hydrazine probes at 25 μM. Concentrations of unreacted starting material and condensation products were determined at 10 min time intervals over 2 hours based on their relative integrations. The values were fit to a standard first order rate constant linear equation and the rate constant was extracted from the slope.
Reaction with Butyraldehyde Monitored by HPLC-ICP-MS
Reactions were conducted in pH 7.4 phosphate-buffered saline with butyraldehyde concentration of 100 μM and hydrazine probes at 25 μM. Concentrations of unreacted starting material and condensation products were determined based on their relative integrations at 12 min time intervals over 2 hours.

[2] = Biodistribution of manganese in healthy mice 60 minutes post-injection; assay type: in vivo, mouse; settings: 0.1 mmol/kg i.v.
Text: To meet these requirements, the probes Mn-12, Mn-13 and Mn-14 were designed based on the stable Mn-1,4-DO2A chelate. […] This combination of stability, turn-on relaxivity, and low uptake in healthy liver indicate that Mn-12 is quite promising as a novel probe for liver fibrogenesis detection.

[3] = Relaxivity measurements in PBS; assay type: physicochemical; settings: 1.4 T, 37° C.
Method: (§1) BSA-ALD (10 mg/mL) or BSA (10 mg/mL) were treated for 24 hours at 37° C. with the corresponding Gd or Mn complex at a range of concentrations (0.01-0.2 mM), with a total volume of 300 μL maintained for all samples. After 24 hours, an aliquot of the solution (50 μL) was used for longitudinal (T1) relaxation measurements, recorded using a Bruker mq60 Minispec at 1.41 T and 37° C. Longitudinal (T1) relaxation times were measured via an inversion recovery experiment using 10 inversions of duration ranging between 0.05×T1 and 10×T1. Solutions (concentration range: 0.1 mM-1.0 mM) in PBS were run in parallel. To measure the relaxivity of BSA-bound species, sodium cyanoborohydride (10 mg) was added to the solution to irreversibly bind the probe to the protein. After a further 2h incubation at 37° C., protein-bound and protein-free solutions were separated by ultrafiltration. Then 200 μL PBS was added to the residue to dissolve the protein. Longitudinal (T1) relaxation times for the bounded species were measured using a Bruker mq60 Minispec at 1.41 T and 37° C. After the measurement, concentration of corresponding metal ion (Gd/Mn) in the residue and filter were both determined using an Agilent 8800 ICP-MS system. Relaxivity (r1) was determined from the slope of a plot of 1/T1 vs metal concentration for 5 concentrations.

[4] = target: bovine serum albumin (BSA) (Bos taurus, UniProt P02769); assay: Relaxivity measurements with BSA; assay type: binding; settings: 1.4 T, 37° C., BSA 10 mg/mL
Sequence of bovine serum albumin (BSA) (P02769 25-607): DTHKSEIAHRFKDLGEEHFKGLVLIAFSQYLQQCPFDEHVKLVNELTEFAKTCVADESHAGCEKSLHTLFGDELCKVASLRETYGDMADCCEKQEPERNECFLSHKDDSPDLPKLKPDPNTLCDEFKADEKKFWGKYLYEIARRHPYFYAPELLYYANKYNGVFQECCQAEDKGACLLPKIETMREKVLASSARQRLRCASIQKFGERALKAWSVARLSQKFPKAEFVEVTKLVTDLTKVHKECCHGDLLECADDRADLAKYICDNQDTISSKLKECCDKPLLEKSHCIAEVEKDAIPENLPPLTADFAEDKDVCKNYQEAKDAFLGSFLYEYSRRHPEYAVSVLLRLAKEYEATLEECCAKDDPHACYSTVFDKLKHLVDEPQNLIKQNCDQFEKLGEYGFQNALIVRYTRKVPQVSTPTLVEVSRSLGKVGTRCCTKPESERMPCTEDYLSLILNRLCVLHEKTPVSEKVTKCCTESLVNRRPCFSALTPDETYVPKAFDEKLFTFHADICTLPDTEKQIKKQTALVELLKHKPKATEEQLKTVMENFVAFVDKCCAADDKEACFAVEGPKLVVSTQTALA
Method: as §1

[5] = target: T1, BSA-ALD (oxidized bovine serum albumin containing allysine aldehyde groups) (Bos taurus, UniProt P02769); assay: Relaxivity measurements with BSA-Ald; assay type: binding; settings: 37° C.; for r1, +BSA-Ald / r1, Bound to BSA-Ald: 1.4 T; for r1, +BSA-Ald: BSA-Ald 10 mg/mL; for r1, Bound to BSA-Ald: protein-bound species after NaBH3CN and ultrafiltration
T1 construct: made in house; host or cells: no expression host: BSA oxidised chemically with sodium ascorbate, ferric chloride and H2O2, then desalted on PD-10
T1 sequence (P02769 25-607): as above
Method: Preparation of Allysine Containing Bovine Serum Albumin, BSA-ALD:
To a solution of bovine serum albumin (BSA) (100 mg) dissolved in phosphate buffered saline (4 mL, pH 7.4, 0.25 mM), sodium ascorbate (20 mg), ferric chloride (120 μL, 10 mM) and 20 μL H2O2 (30% w) were added. The reaction was stirred at 37° C. for 24 hours, and sodium ascorbate (20 mg) was added repeatedly every 8 hours. After the reaction, protein was purified using PD-10 Sephadex G25 desalting columns (GE Healthcare), eluted with PBS. Protein concentration was assessed using the ‘BCA Protein Assay Kit’ (Thermo Scientific). Protein carbonyl concentration was determined by ‘Protein Carbonyl Content Assay Kit’ (Sigmal-Aldrich).
(§2) Alternatively, preparation of BSA^Ald and binding of Gd^3+ probe to protein was carried out according to modified procedures. To a solution of bovine serum albumin (BSA) (100 mg) dissolved in phosphate buffered saline (4 mL, pH 7.4, 0.25 mM) was added sodium ascorbate (20 mg), ferric chloride (120 μL, 10 mM) and 20 μL H2O2 (30% w). The reaction was stirred at 37° C. for 24 h, and sodium ascorbate (20 mg) was added repeatedly every 8 h. After 24 h, the protein was purified using PD-10 Sephadex G25 desalting columns (GE Healthcare), eluted with PBS. Protein concentration was assessed using the ‘Micro BCA Protein Assay Kit’ (Thermo Scientific, 23235). Protein carbonyl concentration was determined by ‘Protein Carbonyl Content Assay Kit’ (Sigma-Aldrich, MAK094-1KT). […] The protein solutions were kept at a concentration of 20 mg/mL for further use.
as §1

[6] = Reaction rates with 2-formylpyridine measured by HPLC-ICP-MS (Method A); assay type: physicochemical; settings: Method a: 2-formylpyridine 1000 μM, probe 25 μM, pH 7.40 PBS
Method: Quantitative Measurement of Reaction Rates with Aldehydes: Method A: Reaction Rates of Compounds with 2-Formylpyridine Measured by HPLC-ICP-MS
Reactivity of aldehyde-binding probes were assessed in pH 7.40 phosphate-buffered saline under pseudo-first order conditions with 2-formylpyridine concentration of 1000 μM and probes at 25 μM. Concentrations of unreacted starting material and condensation products were determined at 12 min time intervals based on their relative integrations. The values were fit to a standard first order rate constant linear equation and the rate constant was extracted from the slope.

[7] = system: ECM proteins from fibrotic rat liver; assay: Relaxivity measurements in ECM; assay type: binding
Method: Liver fibrosis was induced in male Sprague Dawley rats by ligation of the common bile duct (CD®, Charles River Labs, Wilmington, MA). Ten days after common bile duct ligation, the fibrotic liver was harvested and sequential extractions were performed using the CNMCS (Cytosol/Nucleus/Membrane/Cytoskeleton) Compartmental Protein Extraction kit (Cytomol, Union City, CA) according to manufacturer's instructions. In brief, frozen tissues (150-200 mg) were homogenized and with solvents provided in the kit to sequentially to remove: cytosolic proteins, nuclear proteins, membrane proteins, and cytoskeletal proteins, leaving a final insoluble fraction enriched for ECM proteins.
Relaxivity Measurements in ECM
The enriched ECM proteins from 800 mg of fibrotic rat liver were suspended in 1 ml PBS. The ECM protein concentration was about 10% (5 mg in a 50 μL aliquot determined by weight after lyophilization). An aliquot of the solution (50 μL) was treated for 2 h at 37° C. with the corresponding molecular probe at a range of concentrations (0.01-0.1 mM) and then longitudinal (T1) relaxation measurements was recorded using a Bruker mq60 Minispec at 1.41 T and 37° C. For the blocking experiment with N2H4, a 100 fold-excess of N2H4 referred to the concentration of molecular probe was added to the solution before the incubation. Longitudinal (T1) relaxation times were measured via an inversion recovery experiment using 10 inversions of duration ranging between 0.05×T1 and 10×T1. Relaxivity (r1) was determined from the slope of a plot of 1/T1 vs metal concentration for 4 concentrations.

BSA-ALD = target: T2, BSA-ALD (Bos taurus, UniProt P02769); assay: Binding yield measurements of Gd^3+ complex with BSA^Ald (ultrafiltration, ICP-MS); parameters: species or system bovine; settings: pH 7.4, PBS, 37° C., 12 h, ultrafiltration 5,000 Da cut-off
T2 construct: made in house; host or cells: no expression host: BSA oxidised chemically with sodium ascorbate, ferric chloride and H2O2, then desalted on PD-10
T2 sequence (P02769 25-607): as above
Method: FIG. 48. […] Binding concentration of the probes to BSA^Ald (pH 7.4, PBS, 37° C., 12 h) as determined by ICP-MS following an ultrafiltration (5,000 Da cut-off) to separate the protein-bound probe from the unbound probe. Slope gives the binding yield.
as §2

[8] = system: bleomycin-injured mice (pulmonary fibrosis); assay: EGCG treatment of bleomycin-injured mice monitored with Gd-9 MRI; assay type: in vivo, mouse
Method: Gd-9 is a Gd-DOTA derivative with two hydrazine arms synthesized by amide coupling of two tBu-piperazin-1-ylcarbamate groups to 1,4,7,10-tetraazacyclododecane-1,4-bis(tBu-acetate)-4,10-bis(glutaric acid 1-tBu ester), followed by acid deprotection and gadolinium complexation. C57Bl/6 adult male mice at 8 weeks of age received a single intratracheal dose of bleomycin, 1 U/kg body weight (50 μL total volume) as previously described. Pair-wise imaging study of GdCHyd and Gd-9 was carried out in mice at day 14 post bleomycin injury on a 4.7 T MRI with a dose of 100 μmol/kg of each probe. For the treatment study, mice were imaged first at day 10 post bleomycin injury, then treated daily with oral gavage of either epigallocatechin gallate (EGCG, 100 mg/kg) or PBS (vehicle) for 11 days. At day 21 post bleomycin injury, the animals were imaged again. MRI consisted of T1-weighted UTE (TR/TE/flip angle=4 ms/0.011 ms/15°) images acquired prior to and up to 30 minutes following intravenous administration of Gd-9 ([…]). Following the second imaging session, animals were euthanized (60 minutes post injection), and lung tissues were removed for further analysis.
The dual hydrazine probe Gd-9 was first compared to GdCHyd in a head-to head comparison in vivo. Mice were imaged 14 days after bleomycin injury first with Gd-CHyd and then 4 h later with Gd-9. […] Gd-9 was nexted used to monitor response to EGCG treatment in bleomycin-injured mice. Mice were imaged at 10 days after bleomycin injury and then the mice were treated with EGCG (100 mg/kg) or PBS (vehicle) for 11 days, and then the mice were imaged again (FIG. 14).

[9] = EGCG 100 mg/kg oral gavage daily for 11 days vs vehicle

Row | Structure (SMILES) | r1, PBS [3] [mM⁻¹ s⁻¹] | r1, +BSA [4] [mM⁻¹ s⁻¹] | r1, +BSA-Ald [5] [mM⁻¹ s⁻¹] | r1, Bound to BSA-Ald [5] | k (second order rate constant) [6] [M⁻¹ s⁻¹] | further results
1 | CCCCN1CCN(CCCC(=O)N2CCN(N)CC2)CCN(CC(=O)[O-])CCN(CC(=O)[O-])CC1.[Mn+2] [Mn-13] | 1.6 | 1.9 | 2.3 | 6.2 mM⁻¹ s⁻¹ |  | k (second order rate constant) [1]: 1.9 M⁻¹ s⁻¹; Mn liver levels in healthy mice [2]: high Mn liver levels; also recorded: elevated levels
2 | O=C([O-])CN1CCN(CC(=O)[O-])CCN(CC(=O)NCCOCCOCCOCCNC(=O)CN2C(=O)CSC2=S)CC1.[Ga+3] [Ga-4] |  |  |  |  | 0.34 | 
3 | NN1CCN(C(=O)CCC(C(=O)[O-])N2CCN(CC(=O)[O-])CCN(CC(=O)[O-])CCN(C(CCC(=O)N3CCNCC3)C(=O)[O-])CC2)CC1.[Gd+3] (stereo not shown) [Gd-11] | 6.2 | 6.2 | 7.6 | 13.7 mM⁻¹ s⁻¹ and 13.8 mM⁻¹ s⁻¹ |  | relaxivity in ECM ([7]; PBS, pH 7.4, 2 h, 37° C., 1.41T): 6.7 mM⁻¹ s⁻¹; relaxivity in ECM with 100-fold excess of hydrazine ([7]; aldehydes blocked with N2H4): 6.1 mM⁻¹ s⁻¹; equilibrium binding to BSA^Ald (binding yield) (BSA-ALD): 19.2%; increase of r1 in BSA^Ald compared to PBS value ([5]; 1.41 T): 23%
4 | NN1CCN(C(=O)CCOCCOCCOCCOCCNC(=O)CN2CCN(CC(=O)[O-])CCN(CC(=O)[O-])CC2)CC1.[Ga+3] [Ga-1] |  |  |  |  | 0.06 | 
5 | NC(Cn1cccc1)C(=O)NCCOCCOCCOCCNC(=O)CN1CCN(CC(=O)[O-])CCN(CC(=O)[O-])CC1.[Ga+3] (stereo not shown) [Ga-2] |  |  |  |  | 0.11 | 
6 | O=C(O[C@@H]1Cc2c(O)cc(O)cc2O[C@@H]1c1cc(O)c(O)c(O)c1)c1cc(O)c(O)c(O)c1 [EGCG, epigallocatechin gallate] |  |  |  |  |  | lung to muscle ΔCNR after Gd-9 injection, day 21 vs day 10 ([8]; EGCG 100 mg/kg oral gavage daily for 11 days): significantly decreased; lung allysine content [8, 9]: significantly reduced; lung hydroxyproline (total collagen) [8, 9]: reduced
7 | NNC(=O)CCCN1CCN(CCCC(=O)NN)CCN(CC(=O)[O-])CCN(CC(=O)[O-])CC1.[Mn+2] [Mn-14] | 1.5 | 1.8 | 2.5 | 7.3 mM⁻¹ s⁻¹ |  | k (second order rate constant) [1]: 1.4 M⁻¹ s⁻¹
